Source: patent US10118947B2, “Modulation of structured polypeptide specificity” (BICYCLE THERAPEUTICS LIMITED, priority 2013, dated 2018)
Like-named read-outs stand apart in the source and are kept apart here. Numbered stars: 1 amine (or outer) side, 2 acyl side, 3 side chain; on linkers, the order of the positions; unused ones are H or OH. Bridge positions count the residues as written; N and C are the ends. Square brackets hold non-standard residues; d marks the D form. Peptide text beside a SMILES is read from it. Phe(4-guanidino) = N=C(N)Nc1ccc(C[C@H](N)C(=O)O)cc1; TBMB = c1c(C[*:1])cc(C[*:3])cc1C[*:2]; NMeR = CN[C@@H](CCCNC(=N)N)C(=O)O; hArg = N=C(N)NCCCC[C@H](N)C(=O)O; Aze = O=C(O)[C@@H]1CCN1

Assays:
[1] = Table 1; Method #1; cited from earlier work
[2] = Plasma stability profiling Method #1 (MALDI-TOF, 35% plasma), rat plasma; format: in vitro ADME; settings: comparative stabilities estimated according to method #1
Method in brief: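 Qualitative test: 200 µM peptide incubated at 37 °C in 35% rat or human citrated plasma supplemented with PBS, sampled at 0, 3, 24 h then daily up to 10 days. Parent mass tracked by MALDI-TOF; value is time until parent peptide no longer detectable.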

[3] = target: T1, rat plasma Kallikrein (Rattus norvegicus, UniProt P14272); settings: Table 1; read-out: Ki (nM) (rat kallikrein); cited from earlier work
T1 construct: polyhistidine tag (N, cleaved yes); proTEV cleavage site (pro-peptide linker) (N, cleaved yes); made in house; host or cells: HEK-293 (suspension-adapted)
T1 sequence (P14272 391-638 limits assumed): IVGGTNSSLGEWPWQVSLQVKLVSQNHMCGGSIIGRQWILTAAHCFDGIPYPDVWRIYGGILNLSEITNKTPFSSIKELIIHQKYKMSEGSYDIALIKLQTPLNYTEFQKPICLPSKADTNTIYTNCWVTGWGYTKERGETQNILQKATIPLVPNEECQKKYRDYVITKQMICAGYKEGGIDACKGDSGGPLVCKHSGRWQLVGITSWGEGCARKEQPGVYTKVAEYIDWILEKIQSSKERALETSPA

[4] = Table 1; Method #3; cited from earlier work
[5] = Quantitative plasma stability Method #3 (LC-MS, 95% plasma), rat plasma; format: in vitro ADME
Method: (§1) To obtain plasma stability quantitatively, peptide stock solutions (1 mM in DMSO) were shipped to Biofocus, UK, who performed the analysis. Peptides were diluted to 100 uM with water, and diluted 1:20 in plasma (5 uM final concentration, with the plasma at 95%), sampled as appropriate, precipitated as above, and quantified using a Waters Xevo TQ-MS.

[6] = Quantitative plasma stability Method #3 (LC-MS, 95% plasma), human plasma; format: in vitro ADME; settings: human plasma (95%), Table 2, ex vivo human plasma, read-out: Human Plasma Stability (t½ in hrs) (converted)
Method: as §1

[7] = target: T2, human plasma Kallikrein (Homo sapiens, UniProt P03952); test: Functional enzyme inhibition assay with fluorogenic substrate Z-PheArg-AMC, human plasma Kallikrein; format: biochemical; settings: Table 2; read-out: Ki (nM) human Kai
T2 construct: purchased Stratech, UK
T2 sequence (P03952 20-638): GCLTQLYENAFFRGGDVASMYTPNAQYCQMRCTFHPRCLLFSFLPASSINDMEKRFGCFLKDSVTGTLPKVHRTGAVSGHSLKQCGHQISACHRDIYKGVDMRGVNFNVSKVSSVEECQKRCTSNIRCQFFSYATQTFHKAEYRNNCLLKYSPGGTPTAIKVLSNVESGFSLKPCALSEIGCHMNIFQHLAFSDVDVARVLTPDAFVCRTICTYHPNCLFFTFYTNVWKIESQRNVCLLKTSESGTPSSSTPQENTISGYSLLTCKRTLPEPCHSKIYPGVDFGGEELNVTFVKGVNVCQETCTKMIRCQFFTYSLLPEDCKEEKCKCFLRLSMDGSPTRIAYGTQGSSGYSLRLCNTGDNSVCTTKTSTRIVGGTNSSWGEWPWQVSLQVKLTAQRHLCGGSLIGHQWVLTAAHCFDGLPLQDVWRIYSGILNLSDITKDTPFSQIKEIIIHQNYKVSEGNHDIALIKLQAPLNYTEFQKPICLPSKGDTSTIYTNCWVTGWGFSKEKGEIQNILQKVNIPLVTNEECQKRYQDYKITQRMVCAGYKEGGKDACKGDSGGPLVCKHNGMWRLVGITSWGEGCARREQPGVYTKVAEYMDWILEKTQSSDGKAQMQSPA
Method in brief: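 Rates of AMC release (excitation 360 nm, emission 460 nm) from 100 μM final Z-PheArg-AMC, 4% DMSO, were taken over the linear phase, typically 5 to 45 minutes. IC50 from four-parameter non-linear regression; Ki also derived.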

[8] = target: T2, human plasma Kallikrein; test: Phage binding assay of individual clones, homogeneous plate-based binding to biotinylated human plasma Kallikrein; settings: for BINDING ASSAY SIGNAL: Table 19, fixed WPAR motif library, selection output clones
Method: Library transformant colonies were picked at random and grown as individual cultures in 2TY broth containing selective antibiotic. The picked colonies were DNA-sequenced using a QIAgen PyroMark Q96 DNA sequencer to reveal the amino-acid substitution present in each clone. Where isolated, a clone of each unique substitution was assayed for human plasma Kallikrein binding as follows. The phage-containing supernatant was harvested from the culture and phage were cyclised with tris bromomethyl benzene(TBMB) based on the methods of Heinis et al (Nature Chemical Biology vol. 5 pp 502-507 (2009)). The purified phage from this process were assayed for binding to biotinylated human plasma Kallikrein using a homogeneous plate-based binding assay; assay read-out measured on a BMG Labtech Pherastar FS plate reader. The quantitative binding data from triplicate assay samples was averaged (mean) and expressed as signal:background (where background was a sample assayed with no target material). The signal:background was expressed as a % of the parallel parent sample. Error bars denote standard deviation of the mean. Assays shown are representative of at least 2 independent experiments. The assay data was correlated with the peptide sequences. Substitutions marked in grey were not tested (a clone was not isolated from the random library sampling). A sample of a non-binding (arbitrary) bicycle was assayed in parallel to illustrate the assay baseline.
Library transformant colonies, or selection output colonies, were picked and grown as individual cultures in 2TY broth containing selective antibiotic. The picked colonies were DNA-sequenced using a QIAgen PyroMark Q96 DNA sequencer to reveal the amino-acid substitution present in each clone, and were assayed for human plasma Kallikrein binding as follows. The phage-containing supernatant was harvested from the culture and phage were cyclised with tris bromomethyl benzene (TBMB) based on the methods of Heinis et al (Nature Chemical Biology vol. 5 pp 502-507 (2009)). The purified phage from this process were assayed for binding to biotinylated human plasma Kallikrein using a homogeneous plate-based binding assay; assay read-out measured on a BMG Labtech Pherastar FS plate reader. The quantitative binding data from duplicate assay samples was averaged (mean) and expressed as signal:background. Assay data shown is representative of at least 2 independent experiments. The assay data was correlated with the peptide sequences.

[9] = target: T2, human plasma Kallikrein; test: Phage selections against human plasma Kallikrein (abundance in selection output); format: binding; settings: Table 17; relative abundance in the total selection outputs
Method: Glycerol stocks of phage libraries were diluted to OD600=0.1 in 500 ml 2YT/chloramphenicol (30 μg/ml) cultures and phage were produced at 30° C. over night (15-16 hrs). Phage were purified and chemically modified as described in Heinis, et al., Nat Chem Biol 2009, 5 (7), 502-7 Biotinylated hPK (3 μg) (IHPKA, from human plasma, Innovative Research, Novi, Mich., USA) was incubated with 50 μl pre-washed magnetic streptavidin beads (Dynal, M-280 from Invitrogen, Paisley, UK) for 10 minutes at RT. Beads were washed 3 times prior to blocking with 0.5 ml washing buffer (10 mM Tris-Cl, pH 7.4, 150 mM NaCl, 10 mM MgCl2, 1 mM CaCl2) containing 1% BSA and 0.1% Tween 20 for 30 minutes at RT with rotation. […] Blocked beads were then mixed with the blocked chemically modified phage and incubated for 30 minutes on a rotating wheel at
RT. Beads were washed 8 times with washing buffer containing 0.1% Tween 20 and twice with washing buffer before incubation with 100 μl of 50 mM glycine, pH 2.2 for 5 minutes. Eluted phage were transferred to 50 μl of 1 M Tris-Cl, pH 8 for neutralization, incubated with 30 ml TG1 cells at OD600=0.4 for 90 minutes at 37° C. and the cells were plated on large 2YT/chloramphenicol plates. One or two additional rounds of panning were performed using the same procedures. In the second round of selection, neutravidin-coated magnetic beads were used to prevent the enrichment of streptavidin-specific peptides. The neutravidin beads were prepared by reacting 0.8 mg neutravidin (Pierce, Rockford, Ill., USA) with 0.5 ml tosyl-activated magnetic beads (Dynal, M-280 from Invitrogen, Paisley, UK) according to the supplier's instructions.
The WPAR (SEQ ID No. 19) motif identified from Example 1 was analysed in the context of the 06-34-03 peptide, in order to identify alternatives or improvements to the WPAR motif. A library was constructed where positions 1, 6, 7, 8, 9 &10 of 06-34-03 were fixed and positions 2, 3, 4 & 5 were randomised (see ‘Randomisation of peptide domains—Library construction’ in Methods above). Selections against human plasma Kallikrein were performed at a variety of stringencies (see Phage selections' in Methods above). All output sequences were identified and analysed for target binding (see ‘Randomisation of peptide domains—Assay of binding of individual clones’ in Methods above). Table 17 lists each unique sequence, its relative abundance in the selection output (frequency), and a rank number according to target binding strength.

[10] = rat plasma (95%), Table 2, ex vivo rat plasma, Method #3, read-out: Rat Plasma Stability (t½ in hrs) (converted)

Compound: CC(=O)N[C@H]1CSCc2cc3cc(c2)CSC[C@H](NC(=O)[C@H](Cc2ccc(NC(=N)N)cc2)NC(=O)[C@H](C)NC(=O)[C@@H]2CCN2C(=O)[C@H](Cc2c[nH]c4ccccc24)NC(=O)[C@H](CO)NC1=O)C(=O)N[C@@H](CC(C)C)C(=O)N[C@@H](Cc1c[nH]cn1)C(=O)N[C@@H](CCC(N)=O)C(=O)N[C@@H](CC(=O)O)C(=O)N[C@@H](CC(C)C)C(=O)N[C@H](C(N)=O)CSC3 [Ac-(06-34-18) Aze3 4GuanPhe5] (Ac-CSW[Aze]A[Phe(4-guanidino)]CLHQDLC-NH2; linker 1-7-13 via TBMB)
- Observable in rat plasma, for days [1]: >10 days
- Observable in rat plasma, for days ([2]; Table 15): >10 days

Compound: CC(=O)N[C@H]1CSCc2cc3cc(c2)CSC[C@H](NC(=O)[C@H](CCCCNC(=N)N)NC(=O)[C@H](C)NC(=O)[C@@H]2CCN2C(=O)[C@H](Cc2c[nH]c4ccccc24)NC(=O)[C@H](CO)NC1=O)C(=O)N[C@@H](CC(C)C)C(=O)N[C@@H](Cc1c[nH]cn1)C(=O)N[C@@H](CCC(N)=O)C(=O)N[C@@H](CC(=O)O)C(=O)N[C@@H](CC(C)C)C(=O)N[C@H](C(N)=O)CSC3 [Ac-(06-34-18) Aze3 HomoArg5] (Ac-CSW[Aze]A[hArg]CLHQDLC-NH2; linker 1-7-13 via TBMB)
- Observable in rat plasma, for days [1]: >10 days
- Ki [3]: 14.8 nM
- Observable in rat plasma, for days ([2]; Table 15): >10 days

Compound: CC(=O)N[C@H]1CSCc2cc3cc(c2)CSC[C@H](NC(=O)[C@H](CCCNC(=N)N)N(C)C(=O)[C@H](C)NC(=O)[C@@H]2CCN2C(=O)[C@H](Cc2c[nH]c4ccccc24)NC(=O)[C@H](CO)NC1=O)C(=O)N[C@@H](CC(C)C)C(=O)N[C@@H](Cc1c[nH]cn1)C(=O)N[C@@H](CCC(N)=O)C(=O)N[C@@H](CC(=O)O)C(=O)N[C@@H](CC(C)C)C(=O)N[C@H](C(N)=O)CSC3 [Ac-(06-34-18) Aze3 NMeArg5] (Ac-CSW[Aze]A[NMeR]CLHQDLC-NH2; linker 1-7-13 via TBMB)
- Observable in rat plasma, for days [1]: >10 days
- Ki [3]: 70.2 nM
- Observable in rat plasma, for days ([2]; Table 15): >10 days

Compound: CC(=O)N[C@H]1CSCc2cc3cc(c2)CSC[C@H](NC(=O)[C@H](Cc2ccc(NC(=N)N)cc2)NC(=O)[C@H](Cc2ccc(O)cc2)NC(=O)[C@@H]2CCCN2C(=O)[C@H](Cc2ccccc2)NC(=O)[C@H](CO)NC1=O)C(=O)N[C@@H](CC(C)C)C(=O)N[C@@H](Cc1c[nH]cn1)C(=O)N[C@@H](CCC(N)=O)C(=O)N[C@@H](CC(=O)O)C(=O)N[C@@H](CC(C)C)C(=O)N[C@H](C(N)=O)CSC3 [Ac-(06-34-18) Phe2 Tyr4 4GuanPhe5] (Ac-CSFPY[Phe(4-guanidino)]CLHQDLC-NH2; linker 1-7-13 via TBMB)
- Observable in rat plasma, for days [1]: >10 days
- t1/2 (hrs) in rat plasma [4]: 5.0 h
- half-life at 5 uM [5, 10]: 5 h
- Ki [3]: 0.6 nM
- Observable in rat plasma, for days ([2]; Table 23): >10 days
- half-life at 5 uM [6]: 2.9 h

Compound: CC(=O)N[C@H]1CSCc2cc3cc(c2)CSC[C@H](NC(=O)[C@H](CCCCNC(=N)N)NC(=O)[C@H](Cc2ccc(O)cc2)NC(=O)[C@@H]2CCCN2C(=O)[C@H](Cc2ccccc2)NC(=O)[C@H](CO)NC1=O)C(=O)N[C@@H](CC(C)C)C(=O)N[C@@H](Cc1c[nH]cn1)C(=O)N[C@@H](CCC(N)=O)C(=O)N[C@@H](CC(=O)O)C(=O)N[C@@H](CC(C)C)C(=O)N[C@H](C(N)=O)CSC3 [Ac-(06-34-18) Phe2 Tyr4 HomoArg5] (Ac-CSFPY[hArg]CLHQDLC-NH2; linker 1-7-13 via TBMB)
- Observable in rat plasma, for days [1]: >10 days
- t1/2 (hrs) in rat plasma [4]: 12.2 h
- t1/2 (hrs) in rat plasma ([5]; Table 23, method #3): 12.2 h
- rat plasma stability enhanced by a factor ([5]; compared to parent Phe2 Tyr4 peptide): 13
- half-life at 5 uM [5, 10]: 12.2 h
- Ki [3]: 16.2 nM
- Observable in rat plasma, for days ([2]; Table 23): >10 days
- half-life at 5 uM [6]: 2.1 h

Compound: CC(=O)N[C@H]1CSCc2cc3cc(c2)CSC[C@H](NC(=O)[C@H](CCCNC(=N)N)N(C)C(=O)[C@H](Cc2ccc(O)cc2)NC(=O)[C@@H]2CCCN2C(=O)[C@H](Cc2ccccc2)NC(=O)[C@H](CO)NC1=O)C(=O)N[C@@H](CC(C)C)C(=O)N[C@@H](Cc1c[nH]cn1)C(=O)N[C@@H](CCC(N)=O)C(=O)N[C@@H](CC(=O)O)C(=O)N[C@@H](CC(C)C)C(=O)N[C@H](C(N)=O)CSC3 [Ac-(06-34-18) Phe2 Tyr4 NMeArg5] (Ac-CSFPY[NMeR]CLHQDLC-NH2; linker 1-7-13 via TBMB)
- Observable in rat plasma, for days [1]: >10 days
- t1/2 (hrs) in rat plasma [4]: >20 h
- half-life at 5 uM [5, 10]: > 20 h
- half-life at 5 uM ([5]; rat, plasma, Table 23, method #3, read-out: t1/2 (hrs) in rat plasma (converted)): > 20 h
- Ki [3]: 64.3 nM
- Ki [7]: 4 nM
- Observable in rat plasma, for days ([2]; Table 23): >10 days
- half-life at 5 uM [6]: 1.7 h

Compound: CAWPARCTHDDLC
- BINDING ASSAY SIGNAL [8]: 84

Compound: CLWPARCLTIELC
- BINDING ASSAY SIGNAL [8]: 59

Compound: CQWPARCTHTDLC
- BINDING ASSAY SIGNAL [8]: 91

Compound: CSWPARCTHTDLC
- BINDING ASSAY SIGNAL [8]: 83

Compound: CSWPYHCTHQDLC
- FREQUENCY [9]: 1
- RANK ([8]; Table 17, rank according to Kallikrein binding, positions 2-5 of 06-34-03 randomised): 39
